Measured values published in ChEMBL document CHEMBL1151463, “Human immunodeficiency virus types 1 and 2 exhibit comparable sensitivities to Zidovudine and other nucleoside analog inhibitors in vitro” (Antimicrob Agents Chemother, 2008).
The source made the active and inactive calls. The calls are words filed in the database; no cut-off is given here.

Tests used:
[1] = tested on: Human immunodeficiency virus 1; assay: Antiviral activity against wild type HIV1 NL4-3 produced from full length pR9deltaApa infected in human MAGIC-5A cells assessed as inhibition of Lac+ foci expression after 40 hrs; format: functional, organism-based; conditions: Human immunodeficiency virus 1, NL4-3, MAGIC-5A
[2] = tested on: Human immunodeficiency virus 1; assay: Selectivity ratio of EC50 for multinucleoside-resistant HIV1 NL4-3 harboring A62V, V75I, F77L, F116Y, Q151M mutation in viral reverse transcriptase to EC50 for wild type HIV1 NL4-3; format: functional
[3] = tested on: Human immunodeficiency virus 2; assay: Antiviral activity against wild type HIV2 ROD produced from full length pROD9 infected in human MAGIC-5A cells assessed as inhibition of Lac+ foci expression after 40 hrs; format: functional, organism-based; conditions: for EC50: Human immunodeficiency virus 2, ISOLATE ROD
[4] = tested on: Human immunodeficiency virus 1; assay: Antiviral activity against multinucleoside-resistant HIV1 NL4-3 harboring A62V, V75I, F77L, F116Y, Q151M mutation in viral reverse transcriptase infected in human MAGIC-5A cells assessed as inhibition of Lac+ foci expression after 40 hrs; format: functional, organism-based; conditions: Human immunodeficiency virus 1, NL4-3, MAGIC-5A
[5] = tested on: Human immunodeficiency virus 2; assay: Antiviral activity against wild type HIV2 CDC310319 infected in human MAGIC-5A cells assessed as inhibition of Lac+ foci expression after 40 hrs; format: functional, organism-based
[6] = tested on: Human immunodeficiency virus 2; assay: Antiviral activity against recombinant HIV2 ROD carrying HIV2 UC2 reverse transcriptase infected in human MAGIC-5A cells assessed as inhibition of Lac+ foci expression after 40 hrs; format: functional, organism-based; conditions: Human immunodeficiency virus 2, ISOLATE ROD

| Structure (SMILES) | EC50 [1] | Ratio EC50 [2] | EC50 [3] | EC50 [4] | Activity ([3]; ISOLATE ROD) | Activity [5] | EC50 [6] |
| --- | --- | --- | --- | --- | --- | --- | --- |
| Nc1nc(NC2CC2)c2ncn([C@H]3C=C[C@@H](CO)C3)c2n1 [ABACAVIR] | 7.6 µM | 5 | 7.2 µM | 40 µM |  |  |  |
| O=c1[nH]cnc2c1ncn2[C@H]1CC[C@@H](CO)O1 [DIDANOSINE] | 4.7 µM | 10 | 8 µM | 45 µM |  |  |  |
| Nc1nc(=O)n([C@@H]2CS[C@H](CO)O2)cc1F [EMTRICITABINE] | 0.27 µM | 3 | 0.5 µM | 0.79 µM |  |  |  |
| Nc1ccn([C@@H]2CS[C@H](CO)O2)c(=O)n1 [LAMIVUDINE] | 0.88 µM | 4 | 2 µM | 3.7 µM |  |  |  |
| Cc1cn([C@H]2C=C[C@@H](CO)O2)c(=O)[nH]c1=O [STAVUDINE] | 5.5 µM | 14 | 7.1 µM | 79 µM |  |  |  |
| C[C@H](Cn1cnc2c(N)ncnc21)OCP(=O)(O)O [TENOFOVIR ANHYDROUS] | 7.2 µM | 4 | 7.2 µM | 26 µM |  |  |  |
| Cc1cn([C@H]2C[C@H](N=[N+]=[N-])[C@@H](CO)O2)c(=O)[nH]c1=O [ZIDOVUDINE] | 0.16 µM | 43 | 0.12 µM | 7 µM | Dose-dependent effect | Active | 0.071 µM |
